{"source": "patent US20050031575A1", "about": "“Block copolymers” (priority 2001, published 2005)", "origin": "cited, not measured here", "test_system": "solid tumours", "settings": "micelles ranging in size from 20-60 nm that accumulate in solid tumours", "data": [{"substance": "poly(ethylene glycol-aspartate) block copolymer doxorubicin conjugates", "values": [{"measurement": "antitumour activity", "value": "exhibit antitumour activity"}]}]}
